Results: paper PMC11079024, “Identification of a family of species-selective complex I inhibitors as potential anthelmintics” (Nature Communications, 2024)
Where two headings read alike, the source gives them in different places.

Assays:
in vitro = settings: human; for viability at 2 days, 3.13 µM / viability at 2 days, 6.25 µM / viability at 2 days, 12.5 µM / viability at 2 days, 25 µM / viability at 2 days, 50 µM / viability at 2 days, 100 µM: HEK293 cells (Flp-In-293)
[1] = test system: ben-1 mutant (ECA882) C. elegans; test: microbe, parasite or virus in culture; settings: Caenorhabditis elegans; for viability at 1 µM / viability at 2 µM / viability at 3.9 µM / viability at 15.6 µM / viability at 31.3 µM / viability at 62.5 µM / viability at 125 µM / viability at 250 µM / viability at 500 µM / viability at 1000 µM: read-out: C. elegans ben-1(e1880) development/viability
Method in brief: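 L1 larvae (~2 worms/μL in M9) in liquid NGM with 2-fold concentrated E. coli HB101, compound at 1% DMSO, 6 days at 20 °C shaking 165 rpm. Well images scored as summed worm-associated pixels, normalized to DMSO controls; relative viability averaged over at least three biological replicates.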

[2] = HEK293 Cell Viability Assay LC50, HEK293 cells, estimated from fitted dose-response curves, mean of at least two biological replicates
[3] = read-out: C. elegans (ben-1) Development & Viability Assay LC50
[4] = read-out: C. elegans ben-1 log10 LC50 (converted)
[5] = 50 μM, hit = relative motility below 0.25 3 hours after removal of KCN
[6] = Dose 0.2 µM, mean of at least three biological replicates
[7] = 50 μM, KCN survival assay, hit = relative motility below 0.25

Compound | viability at 2 days, 6.25 µM (in vitro; HEK293 viability) [%] | viability at 2 days, 12.5 µM (in vitro; HEK293 viability) [%] | viability at 2 days, 25 µM (in vitro; HEK293 viability) [%] | viability at 2 days, 50 µM (in vitro; HEK293 viability) [%] | viability at 2 days, 100 µM (in vitro; HEK293 viability) [%] | LC50 [1, 3] [µM] | viability at 1 µM [1] [%] | viability at 2 µM [1] [%] | viability at 3.9 µM [1] [%] | viability at 15.6 µM [1] [%] | viability at 31.3 µM [1] [%] | viability at 62.5 µM [1] [%] | viability at 125 µM [1] [%] | LC50 [1, 4] [µM] | C. elegans KCN Survival (L1 wild-type C. elegans; [6]) | C. elegans KCN Survival (L1 wild-type C. elegans; Dose 0.39 µM) | C. elegans KCN Survival (L1 wild-type C. elegans; Dose 1.56 µM) | C. elegans KCN Survival (L1 wild-type C. elegans; Dose 3.13 µM) | C. elegans KCN Survival (L1 wild-type C. elegans; Dose 6.25 µM) | C. elegans KCN Survival (L1 wild-type C. elegans; Dose 12.5 µM) | also measured
Cc1ccc(SCCCn2cnc3ccccc32)cc1 [Compound 7926035] | 96.6 | 98.4 | 97.6 | 65.6 | 30.4 | 69.8 | 94.4 | 87.2 | 86.3 | 91.5 | 76.7 | 57.7 | 5.4 | 69.8 | 0.990 | 0.961 | 0.929 | 0.707 | 0.388 | 0.123 | CC50 at 2 days (in vitro; [2]): 71.4 µM; viability at 2 days, 3.13 µM (in vitro; HEK293 viability, Dose 3.13 µM): 90.8%; viability at 250 µM [1]: 2.6%; viability at 500 µM [1]: 3.4%; viability at 1000 µM [1]: 5.6%; Screen "Hit" (L1 wild-type C. elegans; [5]): Y (hits were identified as compounds that reduced relative motility below 0.25 (75% reduction)); C. elegans KCN Survival (L1 wild-type C. elegans; Dose 25 µM): 0.118; C. elegans KCN Survival (L1 wild-type C. elegans; Dose 50 µM): 0.139; C. elegans KCN Survival (L1 wild-type C. elegans; Dose 100 µM): 0.184
Clc1ccc(SCCCCn2cnc3ccccc32)cc1 [Compound 7925515] | 92.4 | 94.2 | 96.8 | 55.5 | 12.7 | 40.8 | 92.2 | 97 | 94.8 | 84.7 | 65.4 | 25 | 5 | 40.8 | 0.966 | 1.005 | 0.967 | 0.917 | 0.704 | 0.109 | CC50 at 2 days (in vitro; [2]): 57.3 µM; viability at 2 days, 3.13 µM (in vitro; HEK293 viability, Dose 3.13 µM): 83.6%; viability at 250 µM [1]: 3.7%; viability at 500 µM [1]: 3.1%; viability at 1000 µM [1]: 1%; Screen "Hit" (L1 wild-type C. elegans; [7]): Y (hits were identified as compounds that reduced relative motility below 0.25 (75% reduction)); C. elegans KCN Survival (L1 wild-type C. elegans; Dose 25 µM): 0.129; C. elegans KCN Survival (L1 wild-type C. elegans; Dose 50 µM): 0.146; C. elegans KCN Survival (L1 wild-type C. elegans; Dose 100 µM): 0.182
Cc1nc2ccccc2n1Cc1ccc(Cl)c(Cl)c1 [Compound 5655567] | 100 | 100 | 88.9 | 72.1 | 15.5 | 85.3 | 99.9 | 97.1 | 100 | 100 | 99.5 | 84.2 | 10.6 | 85.3 | 0.934 | 0.972 | 0.973 | 0.953 | 0.756 | 0.219 | CC50 at 2 days (in vitro; [2]): 64.5 µM; viability at 2 days, 3.13 µM (in vitro; HEK293 viability, Dose 3.13 µM): 100%; viability at 250 µM [1]: 16.7%; Screen "Hit" (L1 wild-type C. elegans; [7]): Y (hits were identified as compounds that reduced relative motility below 0.25 (75% reduction)); C. elegans KCN Survival (L1 wild-type C. elegans; Dose 25 µM): 0.111; C. elegans KCN Survival (L1 wild-type C. elegans; Dose 50 µM): 0.120; C. elegans KCN Survival (L1 wild-type C. elegans; Dose 100 µM): 0.176
CCn1c(C(C)c2ccc(CC(C)C)cc2)nc2ccccc21 (stereo not drawn) [STK951902] | – | – | – | – | – | 644 | – | – | – | – | – | – | – | 644 | – | – | – | – | – | – | CC50 at 2 days (in vitro; [2]): 31.7 µM; Screen "Hit" (L1 wild-type C. elegans; 50 μM compound, hit = relative motility below 0.25 3 hours after removal of KCN): Y (hits were identified as compounds that reduced relative motility below 0.25 (75% reduction))
CC(C)Oc1cccc(OCCn2cnc3ccccc32)c1 [Compound 7926496] | 97.4 | 96.9 | 97.3 | 85.9 | 43.4 | 388 | 86.1 | 87.5 | 87.4 | 90.6 | 95.8 | 91.5 | 81 | 388 | 1.017 | 1.017 | 1.072 | 1.070 | 1.047 | 0.937 | CC50 at 2 days (in vitro): 94.5 µM; viability (in vitro; HEK293 viability, Dose 3.13 µM): 91.5%; viability at 250 µM [1]: 86.3%; viability at 500 µM [1]: 13.9%; viability at 1000 µM [1]: 3.6%; Screen "Hit" (L1 wild-type C. elegans; [5]): Y (hits were identified as compounds that reduced relative motility below 0.25 (75% reduction)); C. elegans KCN Survival (L1 wild-type C. elegans; Dose 25 µM): 0.437; C. elegans KCN Survival (L1 wild-type C. elegans; Dose 50 µM): 0.153; C. elegans KCN Survival (L1 wild-type C. elegans; Dose 100 µM): 0.199
Nc1nc2ccccc2n1CCOc1ccc(Br)cc1 [Compound 5842535] | 82.9 | 67.8 | 11 | 6.3 | 6.3 | 41.1 | 99.9 | 100 | 97.9 | 100 | 85.9 | 5.7 | 6 | 41 | 1.013 | 1.010 | 1.035 | 1.110 | 1.056 | 0.989 | CC50 at 2 days (in vitro; HEK293 Cell Viability Assay LC50, HEK293 cells, estimated from fitted dose-response curves): 17.3 µM; viability at 2 days, 3.13 µM (in vitro; HEK293 viability, Dose 3.13 µM): 79.2%; Screen "Hit" (L1 wild-type C. elegans; [5]): Y (hits were identified as compounds that reduced relative motility below 0.25 (75% reduction)); C. elegans KCN Survival (L1 wild-type C. elegans; Dose 25 µM): 0.572; C. elegans KCN Survival (L1 wild-type C. elegans; Dose 50 µM): 0.188; C. elegans KCN Survival (L1 wild-type C. elegans; Dose 100 µM): 0.200
